In data set [1] the test system is neonatal human dermal fibroblasts (ATCC PCS-201-010). Nature of the data set: Cytotoxic activity, fibroblast proliferation (sulforhodamine B). In kind it is cell-based. As to conditions: for cytotoxic activity on fibroblast proliferation: 96 h, 6.25–100 μg/cm^3. The procedure:
Passage for normal neonatal human dermal fibroblasts (ATCC PCS-201-010, lot 58243223) were grown in DMEM with 5 % calf serum (Hyclone). For the experiment, cells were plated in DMEM/5 % serum at 2,000 cells/well in 96 well plates (plate 598) and were exposed to test materials for 96 h. MAP and bFGF were used as the positive controls and water, 1, 0.5, and 0.25 % DMSO were used as the negative controls. Plate growth was stopped and cells were stained with a sulforhodamine B dye. The dye was then dissolved and a colorimetric signal proportional to total cell/protein count was quantified with the BioRad microplate spectrophotometer 3550-UV at 570 nm with background subtraction at 660 nm and analyzed with Microplate Manager v.2 software for Macintosh (BioRad). Error bars represent standard errors of the mean (SEM). P values representing statistical significance were calculated using the t test.

In data set [2] the test system is P. acnes ATCC 11827. Nature of the data set: Antibacterial activity, MIC in broth serial dilution. As to conditions: for MIC: Cutibacterium acnes, ATCC11827, 72 h, read-out: MIC P. acnes, P. acnes ATCC 11827, 72 h anaerobic.
Procedure: Compounds were tested at serial dilutions in bacterial broth starting at 100 μg/cm^3 (final concentration). P. acnes (ATCC 11827, lot 419697) was grown in thioglycollate nutrient broth (Hardy Diagnostics K29) for 72 h at 33 °C, then inoculated at the density equivalent to 0.5 McFarland standard and incubated with the test materials for another 72 h in an anaerobic environment. […] At the end of the incubation the MIC was assessed optically as the lowest concentration of a test material which caused no bacteria growth [34]. This optical assessment was further confirmed by measuring the absorbance at 655 nm with the BioRad 3550-UV microplate reader. The MIC was defined as at least 50 % inhibition of the increase of OD.
For data set [3], the system named is Mycobacterium tuberculosis H37Rv strain. As to the kind of experiment: Tuberculostatic activity, classical test-tube method of successive dilution. In kind it is cell-based.
Data set [4] has as its system M. tuberculosis sp. 192. The data set is described as above. In kind it is cell-based. As to conditions: Mycobacterium tuberculosis; sp. 192, fully sensitive wild strain.
The subject of data set [5] is panel of 60 human tumor cell lines. Nature of the data set: NCI-60 DTP human tumor cell line screening, whole panel. As to conditions: 10 μM, mean of growth percent for all tested cell lines.
Data set [6] has as its system UO-31. Nature of the data set: NCI-60 DTP human tumor cell line screening. In kind it is cell-based. As to conditions: for inhibition at 10 µM: Homo sapiens.
Data set [7] deals with A498. Nature of the data set: NCI-60 DTP human tumor cell line screening. In kind it is cell-based. The conditions noted are these: Homo sapiens; one dose 10 μM, Renal cancer A498; read-out: Growth inhibition ΔGI.
For data set [8], the system named is MALME-3M. As to the kind of experiment: NCI-60 DTP human tumor cell line screening. In kind it is cell-based. The conditions noted are these: Homo sapiens; one dose 10 μM, Melanoma MALME-3M; read-out: Growth inhibition ΔGI.
The test system of data set [9] is SNB-75. As to the kind of experiment: NCI-60 DTP human tumor cell line screening. In kind it is cell-based. The conditions noted are these: Homo sapiens; one dose 10 μM, CNS cancer SNB-75; read-out: Growth inhibition ΔGI.
The test system of data set [10] is HOP-92. Nature of the data set: NCI-60 DTP human tumor cell line screening. The conditions noted are these: Homo sapiens; one dose 10 μM, Non-small cell lung cancer HOP-92; read-out: Growth inhibition ΔGI. In kind it is cell-based.
Data set [11] relates to NCI-H522. As to the kind of experiment: NCI-60 DTP human tumor cell line screening. Type of data set: cell-based. As to conditions: Homo sapiens; one dose 10 μM, Non-small cell lung cancer NCI-H522; read-out: Growth inhibition ΔGI.
Data set [12] concerns Mycobacterium tuberculosis H37Rv, sp. 210 and sp. 192. Nature of the data set: Tuberculostatic activity, three tested strains together. In kind it is cell-based.
Setting [13] is: UO-31, one dose 10 μM, Renal cancer UO-31, read-out: Growth inhibition ΔGI.

Data on 16 compounds can be found in publication PMC4494771, “Synthesis, structure, and biological activity of novel heterocyclic sulfonyl-carboximidamides” (Monatshefte Fur Chemie, 2013).

Converted amounts (≈) assume the structure as drawn. Where two headings read alike, the source gives them in different places.

As to `NC(=NS(=O)(=O)c1ccccc1Cl)c1ccccn1` [Compound 1, N′-[(2-Chlorophenyl)sulfonyl]-2-pyridinecarboximidamide], the melting point is 140 to 142 °C. This compound also showed a growth inhibitory activity in [1] (100 μg/cm^3) of 88%. For the same compound, the cytotoxic effect result in data set [1] (6.25–12.5 μg/cm^3) is listed as “no cytotoxic effect was evident”. The “cytotoxic activity on fibroblast proliferation” value in data set [1] is “weak inhibitory activity”. The MIC in data set [2] lay within 12.5 to 50 µg/mL (≈ 42.3 to 169 µM). Moreover, the “MIC P. acnes” value in [2] (P. acnes ATCC 11827, 72 h anaerobic) is 25 µg/mL (≈ 84.5 µM).

Regarding `NC(=NS(=O)(=O)c1cnccc1Cl)c1ccccn1` [Compound 2, N′-[(4-Chloropyridin-3-yl)sulfonyl]-2-pyridinecarboximidamide], the “cytotoxic activity on fibroblast proliferation” value in data set [1] is recorded as “no cytotoxic activity”. The MIC in data set [3] and in [4] was 50 µg/mL (≈ 168 µM) throughout. The “Growth percent mean values (MG_MID)” value in data set [5] came out at 98.2%. Further, in data set [6] (UO-31, read-out: Growth inhibition ΔGI), the inhibition at 10 µM was 20.4%.

Take `N/C(=N\S(=O)(=O)c1ccccc1Cl)c1cccnc1` [Compound 3, (Z)-N′-[(2-Chlorophenyl)sulfonyl]-3-pyridinecarboximidamide]: the melting point was in the range of 188 to 190 °C. Further, in [2], the MIC was above 100 µg/mL.

Regarding `N/C(=N\S(=O)(=O)c1cnccc1Cl)c1cccnc1` [Compound 4, (Z)-N′-[(4-Chloropyridin-3-yl)sulfonyl]-3-pyridinecarboximidamide], the inhibition at 10 µM in data set [7] was 24.1%; in data set [8], 20%. For the same compound, the MIC in [2] is above 100 µg/mL. Further, in [5], the “Growth percent mean values (MG_MID)” value was found to be 104.8%.

For the compound `NC(=NS(=O)(=O)c1ccccc1Cl)c1ccncc1` [Compound 5, N′-[(2-Chlorophenyl)sulfonyl]-4-pyridinecarboximidamide], the melting point lay in the range of 182 to 185 °C. Also, the MIC in data set [2] was above 100 µg/mL.

For `NC(=NS(=O)(=O)c1cnccc1Cl)c1ccncc1` [Compound 6, N′-[(4-Chloropyridin-3-yl)sulfonyl]-4-pyridinecarboximidamide], the melting point is 215 to 218 °C. Further, the minimal inhibitory concentration (MIC) in data set [2] is above 100 µg/mL.

Take `NC(=NS(=O)(=O)c1ccccc1Cl)c1ncccn1` [Compound 7, N′-[(2-Chlorophenyl)sulfonyl]pyrimidine-2-carboximidamide]: the MIC in [3] was 50 µg/mL (≈ 168 µM); in [4] it was 50 µg/mL (≈ 168 µM); in [2], above 100 µg/mL. Further, in [5], the “Growth percent mean values (MG_MID)” value is 103.0%. In data set [6] (setting [13]), the inhibition at 10 µM came out at 19.4%.

`NC(=NS(=O)(=O)c1cnccc1Cl)c1ncccn1` [Compound 8, N′-[(4-Chloropyridin-3-yl)sulfonyl]pyrimidine-2-carboximidamide] returned a melting point of 162 to 163 °C. The MIC in [3] turned out to be 50 µg/mL (≈ 168 µM). In [4], inhibition of growth (MIC) required 50 µg/mL (≈ 168 µM). In addition, the MIC in [2] is above 100 µg/mL.

In the case of `NC(=NS(=O)(=O)c1ccccc1Cl)c1cnccn1` [Compound 9, N′-[(2-Chlorophenyl)sulfonyl]pyrazine-2-carboximidamide], the melting point is 173 to 174 °C. In data set [2], the MIC is above 100 µg/mL.

With `NC(=NS(=O)(=O)c1cnccc1Cl)c1cnccn1` [Compound 10, N′-[(4-Chloropyridin-3-yl)sulfonyl]pyrazine-2-carboximidamide], the MIC in data set [3] was 50 µg/mL (≈ 168 µM); in [4], 25 µg/mL (≈ 84 µM); in data set [2], above 100 µg/mL. In data set [5], the “Growth percent mean values (MG_MID)” value is 101.9%. Also, in data set [9], the inhibition at 10 µM came to 19.3%.

For `NC(=NS(=O)(=O)c1ccccc1Cl)c1cncc(Cl)n1` [Compound 11, 6-Chloro-N′-(2-chlorophenylsulfonyl)pyrazine-2-carboximidamide], the MIC in [2] is above 100 µg/mL. In addition, the “Growth percent mean values (MG_MID)” value in data set [5] stood at 102.1%. For the same compound, the inhibition at 10 µM was 19.4 to 21.1% in [6] (setting [13]) and 22.6% in data set [8]. In addition, the “Growth inhibition ΔGI” value in data set [6] (one dose 10 μM, Renal cancer UO-31) was 22.6%.

Regarding `NC(=NS(=O)(=O)c1cnccc1Cl)c1cncc(Cl)n1` [Compound 12, 6-Chloro-N′-[(4-chloropyridin-3-yl)sulfonyl]pyrazine-2-carboximidamide], in data set [2], the MIC was above 100 µg/mL. In addition, the “Growth percent mean values (MG_MID)” value in [5] is 97.8%. Also, the inhibition at 10 µM is 25.9% in data set [10] and 143% in [11].

`COc1cncc(C(N)=NS(=O)(=O)c2ccccc2Cl)n1` [Compound 13, N′-(2-Chlorophenylsulfonyl)-6-methoxypyrazine-2-carboximidamide] returned a melting point of 227 to 230 °C. Further, in data set [2], the MIC is above 100 µg/mL.

In the case of `COc1cncc(C(N)=NS(=O)(=O)c2cnccc2Cl)n1` [Compound 14, N′-[(4-Chloropyridin-3-yl)sulfonyl]-6-methoxypyrazine-2-carboximidamide], the melting point is 265 to 270 °C (dec.). Besides, the MIC in data set [2] was above 100 µg/mL.

In the case of `NC(=NS(=O)(=O)c1cnccc1Cl)c1ccc2ccccc2n1` [Compound 16, N′-[(4-Chloropyridin-3-yl)sulfonyl]quinoline-2-carboximidamide], in data set [2], the MIC is above 100 µg/mL.

`NNC(=O)c1ccncc1` [INH, isoniazid, reference compound]: the MIC in data set [3] was 0.5 µg/mL (≈ 3.65 µM); in [4], 0.5 µg/mL (≈ 3.65 µM); in [12] it was 0.5 to 1 µg/mL (≈ 3.65 to 7.29 µM).
